Patent US10168342B2, “Lipid probes and uses thereof” (THE SCRIPPS RESEARCH INSTITUTE, priority 2015, dated 2019)
Where two headings read alike, the source gives them in different places.

Experiments:
[1] = molecular target: T1, AEA-DA lipid probe targets in Neuro2a cells (Mus musculus, UniProt P61759)
T1 sequence (P61759 1-196): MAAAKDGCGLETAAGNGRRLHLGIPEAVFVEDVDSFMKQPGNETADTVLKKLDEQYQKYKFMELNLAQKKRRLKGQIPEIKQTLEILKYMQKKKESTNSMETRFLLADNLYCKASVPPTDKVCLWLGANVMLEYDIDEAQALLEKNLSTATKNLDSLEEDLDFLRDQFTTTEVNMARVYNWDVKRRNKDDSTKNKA

[2] = molecular target: T2, AEA-DA lipid probe targets in Neuro2a cells (Mus musculus, UniProt Q07646)
T2 sequence (Q07646 1-335): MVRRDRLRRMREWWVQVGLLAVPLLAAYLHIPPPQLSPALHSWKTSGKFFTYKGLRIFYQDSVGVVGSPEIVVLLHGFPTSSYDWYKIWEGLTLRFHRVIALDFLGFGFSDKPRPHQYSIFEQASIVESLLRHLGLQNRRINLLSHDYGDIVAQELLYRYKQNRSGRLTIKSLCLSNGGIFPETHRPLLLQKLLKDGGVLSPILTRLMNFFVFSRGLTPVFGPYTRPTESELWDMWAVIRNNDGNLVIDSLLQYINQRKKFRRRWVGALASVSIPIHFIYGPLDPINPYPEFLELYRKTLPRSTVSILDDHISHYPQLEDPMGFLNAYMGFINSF

[3] = molecular target: T3, AEA-DA lipid probe targets in Neuro2a cells (Mus musculus, UniProt Q5U680)
T3 sequence (Q5U680 1-274): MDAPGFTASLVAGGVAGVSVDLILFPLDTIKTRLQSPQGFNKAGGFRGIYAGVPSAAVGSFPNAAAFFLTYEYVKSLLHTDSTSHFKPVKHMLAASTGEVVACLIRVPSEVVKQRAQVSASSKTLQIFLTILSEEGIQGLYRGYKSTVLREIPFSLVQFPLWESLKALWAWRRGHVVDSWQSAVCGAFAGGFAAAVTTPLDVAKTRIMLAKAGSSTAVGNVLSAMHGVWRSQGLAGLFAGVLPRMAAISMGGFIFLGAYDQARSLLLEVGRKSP

[4] = molecular target: T4, AEA-DA lipid probe targets in Neuro2a cells (Mus musculus, UniProt Q8VI75)
T4 sequence (Q8VI75 1-1082): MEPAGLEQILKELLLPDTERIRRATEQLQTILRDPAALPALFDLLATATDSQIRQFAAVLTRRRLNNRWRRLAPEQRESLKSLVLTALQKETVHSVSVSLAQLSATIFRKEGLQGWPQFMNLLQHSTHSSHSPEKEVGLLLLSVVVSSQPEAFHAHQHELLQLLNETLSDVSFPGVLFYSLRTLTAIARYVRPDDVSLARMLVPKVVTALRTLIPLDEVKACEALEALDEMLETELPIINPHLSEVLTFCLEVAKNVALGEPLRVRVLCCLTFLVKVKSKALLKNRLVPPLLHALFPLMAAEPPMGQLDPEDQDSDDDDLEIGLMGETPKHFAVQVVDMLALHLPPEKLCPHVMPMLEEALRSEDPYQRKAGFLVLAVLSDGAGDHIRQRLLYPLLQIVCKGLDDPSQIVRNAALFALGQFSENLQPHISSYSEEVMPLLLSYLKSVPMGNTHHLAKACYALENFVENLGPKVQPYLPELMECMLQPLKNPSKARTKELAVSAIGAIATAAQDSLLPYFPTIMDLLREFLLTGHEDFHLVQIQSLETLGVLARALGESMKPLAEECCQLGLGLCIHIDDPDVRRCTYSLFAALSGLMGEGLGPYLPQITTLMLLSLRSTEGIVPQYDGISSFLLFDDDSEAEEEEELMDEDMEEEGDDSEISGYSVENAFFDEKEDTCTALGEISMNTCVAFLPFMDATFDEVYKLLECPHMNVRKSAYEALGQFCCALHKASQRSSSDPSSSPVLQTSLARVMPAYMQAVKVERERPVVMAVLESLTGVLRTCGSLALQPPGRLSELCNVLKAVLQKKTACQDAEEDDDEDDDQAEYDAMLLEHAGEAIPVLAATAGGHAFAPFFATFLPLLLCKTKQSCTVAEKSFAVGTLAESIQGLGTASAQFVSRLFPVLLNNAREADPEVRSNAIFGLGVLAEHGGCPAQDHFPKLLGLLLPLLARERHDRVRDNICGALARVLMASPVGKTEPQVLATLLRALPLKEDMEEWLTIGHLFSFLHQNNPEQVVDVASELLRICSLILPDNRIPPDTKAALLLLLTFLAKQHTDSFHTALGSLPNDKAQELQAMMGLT

[5] = molecular target: T5, AEA-DA lipid probe targets in Neuro2a cells (Mus musculus, UniProt Q9D024)
T5 sequence (Q9D024 21-483): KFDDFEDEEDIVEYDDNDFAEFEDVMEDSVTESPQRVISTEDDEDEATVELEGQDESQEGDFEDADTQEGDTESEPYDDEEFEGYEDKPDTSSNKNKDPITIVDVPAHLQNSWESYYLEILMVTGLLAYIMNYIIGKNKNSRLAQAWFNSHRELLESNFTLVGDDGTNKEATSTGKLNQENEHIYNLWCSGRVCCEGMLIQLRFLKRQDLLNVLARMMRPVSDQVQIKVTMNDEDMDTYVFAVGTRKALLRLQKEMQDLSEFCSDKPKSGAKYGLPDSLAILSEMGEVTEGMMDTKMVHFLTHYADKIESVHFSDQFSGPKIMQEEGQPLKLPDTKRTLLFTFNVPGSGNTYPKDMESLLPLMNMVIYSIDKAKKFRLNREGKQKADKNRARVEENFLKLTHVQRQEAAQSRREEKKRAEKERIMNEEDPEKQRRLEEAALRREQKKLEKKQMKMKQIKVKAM

[6] = molecular target: T6, AEA-DA lipid probe targets in Neuro2a cells (Mus musculus, UniProt Q9R0P6); conditions: for SILAC ratio, SEC11A (P67812): Neuro2a cells, AEA-DA probe
T6 sequence (Q9R0P6 1-179): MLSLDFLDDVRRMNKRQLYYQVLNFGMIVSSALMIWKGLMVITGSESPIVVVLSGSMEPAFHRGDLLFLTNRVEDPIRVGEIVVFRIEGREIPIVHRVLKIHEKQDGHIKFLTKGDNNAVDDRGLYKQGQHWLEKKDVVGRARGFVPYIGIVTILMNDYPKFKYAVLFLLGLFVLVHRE

Row | SMILES | SILAC ratio, Vbp1 ([1]; competitor 25 μM) | SILAC ratio Mest ([2]; competitor 25 μM) | SILAC ratio, Slc25a26 ([3]; competitor 25 μM) | SILAC ratio Ipo4 ([4]; competitor 25 μM) | SILAC ratio, Ccdc47 ([5]; competitor 25 μM) | SILAC ratio, SEC11A (P67812) ([6]; competitor 25 μM) | SILAC ratio, Sec11a ([6]; competitor 25 μM) | also measured
1 | O=C(/C=C/c1cccnc1)NCCCCC1CCN(C(=O)c2ccccc2)CC1 [FK-866, reference compound] | 1.1 | 1.2 | 0.8 | 1.3 | 1.3 | 1.1 | 1.1 | –
2 | CCCCC/C=C\C/C=C\C/C=C\C/C=C\CCCC(=O)NCCO [AEA, anandamide, reference compound] | – | – | – | – | – | – | – | SILAC ratio, Vbp1 ([1]; competitor 200 μM): 1.1; SILAC ratio Mest ([2]; competitor 200 μM): 1.5; SILAC ratio, Slc25a26 ([3]; competitor 200 μM): 1.0; SILAC ratio Ipo4 ([4]; competitor 200 μM): 1.5; SILAC ratio, Ccdc47 ([5]; competitor 200 μM): 1.7; SILAC ratio, SEC11A (P67812) ([6]; competitor 200 μM): 1.9; SILAC ratio, Sec11a ([6]; competitor 200 μM): 1.9
3 | CN1CCN(C(=O)c2c(-c3ccccc3)c3cc([N+](=O)[O-])ccc3n2C)CC1 [KML110, (1-Methyl-5-nitro-3-phenyl-1H-indol-2-yl)(4-methylpiperazin-1-yl)methanone] | 1.6 | 1.3 | 0.7 | 1.4 | 1.7 | – | 1.6 | –
4 | C=CCN(C)CCCCCCOc1ccc(C(=O)c2ccc(Br)cc2)c(F)c1 [Ro 48-8071, reference compound] | 0.9 | 1.2 | 0.7 | 1.0 | 1.4 | 1.6 | 1.6 | –
5 | CN1CCN(C(=O)c2[nH]c3ccc([N+](=O)[O-])cc3c2-c2ccccc2)CC1 [MJN228, (4-Methylpiperazin-1-yl)(5-nitro-3-phenyl-1H-indol-2-yl)methanone] | 1.5 | 1.4 | 0.7 | 1.3 | 1.8 | 1.6 | 1.6 | SILAC ratio, Vbp1 ([1]; competitor 50 μM): 0.9; SILAC ratio, Vbp1 ([1]; competitor 100 μM): 2.0; SILAC ratio Mest ([2]; competitor 10 μM): 1.2; SILAC ratio Mest ([2]; competitor 50 μM): 1.3; SILAC ratio Mest ([2]; competitor 100 μM): 1.6; SILAC ratio, Slc25a26 ([3]; competitor 10 μM): 0.9; SILAC ratio, Slc25a26 ([3]; competitor 50 μM): 0.3; SILAC ratio, Slc25a26 ([3]; competitor 100 μM): 0.4; SILAC ratio Ipo4 ([4]; competitor 10 μM): 1.0; SILAC ratio Ipo4 ([4]; competitor 50 μM): 1.0; SILAC ratio Ipo4 ([4]; competitor 100 μM): 1.6; SILAC ratio, Ccdc47 ([5]; competitor 10 μM): 1.4; SILAC ratio, Ccdc47 ([5]; competitor 50 μM): 1.9; SILAC ratio, Ccdc47 ([5]; competitor 100 μM): 3.1; SILAC ratio, Sec11a ([6]; competitor 10 μM): 1.2; SILAC ratio, Sec11a ([6]; competitor 50 μM): 1.7; SILAC ratio, Sec11a ([6]; competitor 100 μM): 2.3
